IC50 data for 26 compounds are collected here from US9938273B2 (Plexxikon Inc., priority 2015, dated 2018).

The assay deals with T1, FLT3-D835Y (Homo sapiens, UniProt P36888, D835Y).
T1 construct: purchased Invitrogen PV3967
T1 sequence (P36888 27-993 D835Y): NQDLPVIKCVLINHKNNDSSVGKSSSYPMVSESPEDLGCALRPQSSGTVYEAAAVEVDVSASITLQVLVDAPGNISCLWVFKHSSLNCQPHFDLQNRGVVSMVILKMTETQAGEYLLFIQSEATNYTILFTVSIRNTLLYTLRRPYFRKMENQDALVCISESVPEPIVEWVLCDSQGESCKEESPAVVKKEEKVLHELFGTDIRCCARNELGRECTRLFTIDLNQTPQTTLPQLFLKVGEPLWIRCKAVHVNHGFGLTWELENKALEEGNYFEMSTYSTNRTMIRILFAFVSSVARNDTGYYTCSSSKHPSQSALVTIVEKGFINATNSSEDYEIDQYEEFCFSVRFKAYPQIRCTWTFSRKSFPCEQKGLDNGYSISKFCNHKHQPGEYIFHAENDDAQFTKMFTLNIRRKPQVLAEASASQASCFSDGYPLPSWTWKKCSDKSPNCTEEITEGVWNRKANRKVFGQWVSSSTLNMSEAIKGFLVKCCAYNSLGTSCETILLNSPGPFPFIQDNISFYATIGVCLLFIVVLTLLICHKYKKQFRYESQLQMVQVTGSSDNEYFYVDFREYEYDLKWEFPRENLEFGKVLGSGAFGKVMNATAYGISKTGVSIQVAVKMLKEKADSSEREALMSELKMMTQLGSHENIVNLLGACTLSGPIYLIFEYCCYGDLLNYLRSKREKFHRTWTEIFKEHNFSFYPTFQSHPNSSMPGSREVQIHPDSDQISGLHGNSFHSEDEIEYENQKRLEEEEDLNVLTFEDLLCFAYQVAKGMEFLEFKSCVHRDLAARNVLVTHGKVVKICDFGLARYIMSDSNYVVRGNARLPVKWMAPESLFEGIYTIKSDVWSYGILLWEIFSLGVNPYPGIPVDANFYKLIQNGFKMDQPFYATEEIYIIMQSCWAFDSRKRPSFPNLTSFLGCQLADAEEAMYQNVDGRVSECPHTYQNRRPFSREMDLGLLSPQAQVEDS
The assay is described as follows: AlphaScreen kinase assay with recombinant enzyme, FLT3-D835Y. It counts as biochemical. To be noted: 8pt, GMean. An outline of the steps:
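AlphaScreen, biotinylated poly(Glu4-Tyr) 30 nM final; PY20 anti-pTyr acceptor and streptavidin donor beads 10 μg/mL; IC50 final conc. 10 μM (FLT3-D835Y, FLT3-ITD) / 100 μM (c-KIT); detection incubations 20 + 60 min RT; 580 nm emission.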

SMILES strings stand for the structures.

Regarding `CC(=O)NC1CCN(C(=O)c2cccc(-c3cnc4[nH]c(-c5ccc(F)cc5)cc4c3)c2)CC1` [Compound P-0001, N-[1-[3-[2-(4-fluorophenyl)-1H-pyrrolo[2,3-b]pyridin-5-yl]benzoyl]-4-piperidyl]acetamide], the 50% inhibitory concentration (IC50) is 10 to 50 µM.
With `CON(C)C(=O)c1cccc(-c2cnc3[nH]c(-c4ccccc4)cc3c2)c1` [Compound P-0002, N-methoxy-N-methyl-3-(2-phenyl-1H-pyrrolo[2,3-b]pyridin-5-yl)benzamide], the IC50 lay in the range of 0.0001 to 10 µM.
Consider `NC1CN(C(=O)c2n[nH]c3ccc(-c4cnc5[nH]c(-c6ccccc6)cc5c4)cc23)C1` [Compound P-0029, (3-aminoazetidin-1-yl)-[5-(2-phenyl-1H-pyrrolo[2,3-b]pyridin-5-yl)-1H-indazol-3-yl]methanone], for which the IC50 lay within 0.0001 to 10 µM.
On to `CNC(=O)C1CCN(C(=O)c2cccc(-c3cnc4[nH]c(-c5ccccc5)cc4c3)n2)CC1` [Compound P-0030, N-methyl-1-[6-(2-phenyl-1H-pyrrolo[2,3-b]pyridin-5-yl)pyridine-2-carbonyl]piperidine-4-carboxamide], for which the IC50 is 0.0001 to 10 µM.
Turning to `CCNC(=O)NC1CCN(C(=O)c2cccc(-c3cnc4[nH]c(-c5ccccc5)cc4c3)n2)CC1` [Compound P-0031, 1-ethyl-3-[1-[6-(2-phenyl-1H-pyrrolo[2,3-b]pyridin-5-yl)pyridine-2-carbonyl]-4-piperidyl]urea], the IC50 lay within 0.0001 to 10 µM.
For `CS(=O)(=O)NC1CCN(C(=O)c2cccc(-c3cnc4[nH]c(-c5ccccc5)cc4c3)n2)CC1` [Compound P-0032, N-[1-[6-(2-phenyl-1H-pyrrolo[2,3-b]pyridin-5-yl)pyridine-2-carbonyl]-4-piperidyl]methanesulfonamide], the IC50 was in the range of 0.0001 to 10 µM.
Take `Cc1ccc(-c2cnc3[nH]c(-c4ccccc4)cc3c2)nc1C(=O)N1CCC(N)CC1` [Compound P-0033, (4-amino-1-piperidyl)-[3-methyl-6-(2-phenyl-1H-pyrrolo[2,3-b]pyridin-5-yl)-2-pyridyl]methanone]: the IC50 lay within 0.0001 to 10 µM.
Turning to `NC1CCN(c2cccc3ccc(-c4cnc5[nH]c(-c6ccccc6)cc5c4)nc23)CC1` [Compound P-0034, 1-[2-(2-phenyl-1H-pyrrolo[2,3-b]pyridin-5-yl)-8-quinolyl]piperidin-4-amine], the IC50 was in the range of 0.0001 to 10 µM.
In the case of `Cc1ccc(-c2cnc3[nH]c(-c4ccccc4)cc3c2)cc1C(=O)N1CCC(N)CC1` [Compound P-0035, (4-amino-1-piperidyl)-[2-methyl-5-(2-phenyl-1H-pyrrolo[2,3-b]pyridin-5-yl)phenyl]methanone] it was 0.0001 to 10 µM; in that of `N[C@H]1CCN(C(=O)c2cccc(-c3cnc4[nH]c(-c5ccccc5)cc4c3)c2)C1` [Compound P-0036, [(3S)-3-aminopyrrolidin-1-yl]-[3-(2-phenyl-1H-pyrrolo[2,3-b]pyridin-5-yl)phenyl]methanone], 0.0001 to 10 µM.
The figure for `NC1CCN(C(=O)c2cc(-c3cnc4[nH]c(-c5ccccc5)cc4c3)ccn2)CC1` [Compound P-0038, (4-amino-1-piperidyl)-[4-(2-phenyl-1H-pyrrolo[2,3-b]pyridin-5-yl)-2-pyridyl]methanone] is 0.0001 to 10 µM; for `O=C(NC1CCNCC1)c1n[nH]c2ccc(-c3cnc4[nH]c(-c5ccccc5)cc4c3)cc12` [Compound P-0039, 5-(2-phenyl-1H-pyrrolo[2,3-b]pyridin-5-yl)-N-(4-piperidyl)-1H-indazole-3-carboxamide] it is 0.0001 to 10 µM; for `CNC1CCN(C(=O)c2cccc(-c3cnc4[nH]c(-c5ccccc5)cc4c3)n2)CC1` [Compound P-0041, [4-(methylamino)-1-piperidyl]-[6-(2-phenyl-1H-pyrrolo[2,3-b]pyridin-5-yl)-2-pyridyl]methanone] it is 0.0001 to 10 µM.
`NC1CCN(C(=O)c2c[nH]c3ccc(-c4cnc5[nH]c(-c6ccccc6)cc5c4)cc23)CC1` [Compound P-0042, (4-amino-1-piperidyl)-[5-(2-phenyl-1H-pyrrolo[2,3-b]pyridin-5-yl)-1H-indol-3-yl]methanone]: the IC50 was 0.0001 to 10 µM.
For the compound `O=C(c1cccc(-c2cnc3[nH]c(-c4ccccc4)cc3c2)n1)C1CCNCC1` [Compound P-0043, [6-(2-phenyl-1H-pyrrolo[2,3-b]pyridin-5-yl)-2-pyridyl]-(4-piperidyl)methanone], the IC50 was 0.0001 to 10 µM.
On to `CNC1CCN(C(=O)c2n[nH]c3ccc(-c4cnc5[nH]c(-c6ccccc6)cc5c4)cc23)CC1` [Compound P-0044, [4-(methylamino)-1-piperidyl]-[5-(2-phenyl-1H-pyrrolo[2,3-b]pyridin-5-yl)-1H-indazol-3-yl]methanone], for which the IC50 was in the range of 0.0001 to 10 µM.
Consider `O=C(NC1CCNC1)c1cccc(-c2cnc3[nH]c(-c4ccccc4)cc3c2)n1` (centres unmarked) [Compound P-0045, 6-(2-phenyl-1H-pyrrolo[2,3-b]pyridin-5-yl)-N-pyrrolidin-3-yl-pyridine-2-carboxamide], for which the IC50 was 0.0001 to 10 µM.
In the case of `N[C@H]1CCN(C(=O)c2cc(-c3cnc4[nH]c(-c5ccccc5)cc4c3)ccn2)C1` [Compound P-0046, [(3S)-3-aminopyrrolidin-1-yl]-[4-(2-phenyl-1H-pyrrolo[2,3-b]pyridin-5-yl)-2-pyridyl]methanone] it was 0.0001 to 10 µM; in that of `NC1CCC(C(=O)N2Cc3c(cccc3-c3cnc4[nH]c(-c5ccccc5)cc4c3)C2=O)C1` (centres unmarked) [Compound P-0047, 2-(3-aminocyclopentanecarbonyl)-4-(2-phenyl-1H-pyrrolo[2,3-b]pyridin-5-yl)isoindolin-1-one], 0.0001 to 10 µM; in that of `N[C@H]1CCN(C(=O)c2csc(-c3cnc4[nH]c(-c5ccccc5)cc4c3)n2)C1` [Compound P-0048, [(3S)-3-aminopyrrolidin-1-yl]-[2-(2-phenyl-1H-pyrrolo[2,3-b]pyridin-5-yl)thiazol-4-yl]methanone], 10 to 50 µM.
On to `c1ccc(-c2cc3cc(-c4ccc5[nH]nc(NC6CNC6)c5c4)cnc3[nH]2)cc1` [Compound P-0053, N-(azetidin-3-yl)-5-(2-phenyl-1H-pyrrolo[2,3-b]pyridin-5-yl)-1H-indazol-3-amine], for which the IC50 fell in the range of 0.0001 to 10 µM.
Take `c1ccc(-c2cc3cc(-c4ccc5[nH]nc(NC6CCNCC6)c5c4)cnc3[nH]2)cc1` [Compound P-0056, 5-(2-phenyl-1H-pyrrolo[2,3-b]pyridin-5-yl)-N-(4-piperidyl)-1H-indazol-3-amine]: the IC50 was 0.0001 to 10 µM.
In the case of `N=C(N)N1CCN(C(=O)c2cccc(-c3cnc4[nH]c(-c5ccccc5)cc4c3)n2)CC1` [Compound P-0057, 4-[6-(2-phenyl-1H-pyrrolo[2,3-b]pyridin-5-yl)pyridine-2-carbonyl]piperazine-1-carboxamidine], the IC50 lay in the range of 0.0001 to 10 µM.
In the case of `c1ccc(-c2cc3cc(-c4ccc5[nH]nc(NC6CCNC6)c5c4)cnc3[nH]2)cc1` (centres unmarked) [Compound P-0059, 5-(2-phenyl-1H-pyrrolo[2,3-b]pyridin-5-yl)-N-pyrrolidin-3-yl-1H-indazol-3-amine] it was 0.0001 to 10 µM; in that of `NC1CCCN(C(=O)c2cccc(-c3cnc4[nH]c(-c5ccccc5)cc4c3)n2)C1` (centres unmarked) [Compound P-0067, (3-amino-1-piperidyl)-[6-(2-phenyl-1H-pyrrolo[2,3-b]pyridin-5-yl)-2-pyridyl]methanone], 0.0001 to 10 µM.
The figure for `O=C(c1cccc(-c2cnc3[nH]c(-c4ccccc4)cc3c2)n1)N1CCC(O)C1` (centres unmarked) [Compound P-0068, (3-hydroxypyrrolidin-1-yl)-[6-(2-phenyl-1H-pyrrolo[2,3-b]pyridin-5-yl)-2-pyridyl]methanone] is 0.0001 to 10 µM.
